Laboratory results as given in ChEMBL document CHEMBL1201862, “PubChem BioAssay data set” (2004).
The source made the active and inactive calls.

Assays:
[1] = target: T1, Sentrin-specific protease 8 (Homo sapiens, UniProt Q96LD8); assay type: functional;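 note: luminescence read-out of SENP8 inhibition, dose-response confirmation following an ultra-high-throughput screen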
T1 sequence (Q96LD8 whole entry): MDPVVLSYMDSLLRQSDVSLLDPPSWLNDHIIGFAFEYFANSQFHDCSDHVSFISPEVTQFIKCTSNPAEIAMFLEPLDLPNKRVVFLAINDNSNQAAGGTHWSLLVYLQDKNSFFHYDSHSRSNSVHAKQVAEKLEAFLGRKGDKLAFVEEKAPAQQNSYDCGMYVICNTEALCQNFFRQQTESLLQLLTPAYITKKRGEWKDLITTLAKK

[2] = target: Serine/threonine-protein phosphatase (Homo sapiens, UniProt Q9BPW0); test: PP5 phosphatase inhibitors, dose response, biochemical, fluorescence (AID 2395)
Sequence of Serine/threonine-protein phosphatase (Q9BPW0 whole entry): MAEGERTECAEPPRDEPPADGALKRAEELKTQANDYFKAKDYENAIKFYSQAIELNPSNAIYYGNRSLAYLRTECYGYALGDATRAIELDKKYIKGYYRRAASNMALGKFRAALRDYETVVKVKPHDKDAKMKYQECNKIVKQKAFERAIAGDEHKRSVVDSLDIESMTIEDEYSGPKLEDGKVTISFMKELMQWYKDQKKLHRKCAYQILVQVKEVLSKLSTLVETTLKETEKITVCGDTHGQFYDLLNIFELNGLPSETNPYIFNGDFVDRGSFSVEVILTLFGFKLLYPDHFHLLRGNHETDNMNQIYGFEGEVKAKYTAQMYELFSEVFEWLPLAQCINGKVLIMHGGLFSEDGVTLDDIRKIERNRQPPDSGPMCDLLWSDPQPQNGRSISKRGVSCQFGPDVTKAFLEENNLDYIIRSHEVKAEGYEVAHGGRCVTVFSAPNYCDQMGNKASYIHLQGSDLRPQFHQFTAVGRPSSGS

[3] = target: T2, Microphthalmia-associated transcription factor (Homo sapiens, UniProt O75030); test: TRPM1 promoter luciferase signal decrease, dose response, MITF inhibitor project, cell-based, SK-MEL-5, cherry-picked, set 3 (AID 493073); assay type: functional
T2 sequence (O75030 whole entry): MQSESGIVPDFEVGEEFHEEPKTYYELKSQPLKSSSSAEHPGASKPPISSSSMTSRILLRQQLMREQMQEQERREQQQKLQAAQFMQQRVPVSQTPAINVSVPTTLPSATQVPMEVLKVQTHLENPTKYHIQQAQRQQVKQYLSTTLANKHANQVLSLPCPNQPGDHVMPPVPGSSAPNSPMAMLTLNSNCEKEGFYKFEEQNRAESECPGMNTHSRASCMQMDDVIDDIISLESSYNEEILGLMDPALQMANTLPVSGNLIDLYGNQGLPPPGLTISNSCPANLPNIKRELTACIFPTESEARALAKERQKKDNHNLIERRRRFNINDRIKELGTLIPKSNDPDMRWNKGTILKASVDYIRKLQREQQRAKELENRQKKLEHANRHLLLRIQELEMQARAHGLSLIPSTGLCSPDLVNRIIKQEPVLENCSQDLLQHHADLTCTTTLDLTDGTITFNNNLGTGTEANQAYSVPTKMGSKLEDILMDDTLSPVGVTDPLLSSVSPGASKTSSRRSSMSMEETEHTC

[4] = target: T3, Replicative DNA helicase DnaB (Mycobacterium tuberculosis, UniProt P9WMR3); test: DnaB intein splicing inhibitors, dose response, biochemical, cell-free fluorescence (AID 449749); assay type: functional
T3 sequence (P9WMR3 whole entry): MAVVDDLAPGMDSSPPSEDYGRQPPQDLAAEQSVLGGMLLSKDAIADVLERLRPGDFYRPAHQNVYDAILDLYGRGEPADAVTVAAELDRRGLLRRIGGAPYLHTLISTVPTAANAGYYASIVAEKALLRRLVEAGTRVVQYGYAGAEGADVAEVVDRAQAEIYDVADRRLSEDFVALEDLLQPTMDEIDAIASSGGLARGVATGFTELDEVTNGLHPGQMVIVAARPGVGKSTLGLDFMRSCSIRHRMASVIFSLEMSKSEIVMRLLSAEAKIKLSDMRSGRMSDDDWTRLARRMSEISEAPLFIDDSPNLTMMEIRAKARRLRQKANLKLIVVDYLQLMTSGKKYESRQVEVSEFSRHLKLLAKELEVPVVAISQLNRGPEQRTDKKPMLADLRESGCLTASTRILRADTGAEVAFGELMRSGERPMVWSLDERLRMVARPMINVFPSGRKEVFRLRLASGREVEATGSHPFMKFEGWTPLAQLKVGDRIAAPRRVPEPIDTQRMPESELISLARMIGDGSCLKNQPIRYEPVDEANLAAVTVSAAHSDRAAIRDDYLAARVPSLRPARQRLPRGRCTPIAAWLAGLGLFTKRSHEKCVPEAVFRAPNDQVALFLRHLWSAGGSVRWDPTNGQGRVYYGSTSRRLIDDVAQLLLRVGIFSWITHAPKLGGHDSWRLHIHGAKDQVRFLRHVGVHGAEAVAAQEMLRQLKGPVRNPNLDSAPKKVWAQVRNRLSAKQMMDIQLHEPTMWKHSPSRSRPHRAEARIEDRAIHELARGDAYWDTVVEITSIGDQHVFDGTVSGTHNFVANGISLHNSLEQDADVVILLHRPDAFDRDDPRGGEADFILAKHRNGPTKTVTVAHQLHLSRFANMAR

[5] = target: T4, Apoptotic protease-activating factor 1 (Homo sapiens, UniProt O14727); assay type: functional
T4 sequence (O14727 whole entry): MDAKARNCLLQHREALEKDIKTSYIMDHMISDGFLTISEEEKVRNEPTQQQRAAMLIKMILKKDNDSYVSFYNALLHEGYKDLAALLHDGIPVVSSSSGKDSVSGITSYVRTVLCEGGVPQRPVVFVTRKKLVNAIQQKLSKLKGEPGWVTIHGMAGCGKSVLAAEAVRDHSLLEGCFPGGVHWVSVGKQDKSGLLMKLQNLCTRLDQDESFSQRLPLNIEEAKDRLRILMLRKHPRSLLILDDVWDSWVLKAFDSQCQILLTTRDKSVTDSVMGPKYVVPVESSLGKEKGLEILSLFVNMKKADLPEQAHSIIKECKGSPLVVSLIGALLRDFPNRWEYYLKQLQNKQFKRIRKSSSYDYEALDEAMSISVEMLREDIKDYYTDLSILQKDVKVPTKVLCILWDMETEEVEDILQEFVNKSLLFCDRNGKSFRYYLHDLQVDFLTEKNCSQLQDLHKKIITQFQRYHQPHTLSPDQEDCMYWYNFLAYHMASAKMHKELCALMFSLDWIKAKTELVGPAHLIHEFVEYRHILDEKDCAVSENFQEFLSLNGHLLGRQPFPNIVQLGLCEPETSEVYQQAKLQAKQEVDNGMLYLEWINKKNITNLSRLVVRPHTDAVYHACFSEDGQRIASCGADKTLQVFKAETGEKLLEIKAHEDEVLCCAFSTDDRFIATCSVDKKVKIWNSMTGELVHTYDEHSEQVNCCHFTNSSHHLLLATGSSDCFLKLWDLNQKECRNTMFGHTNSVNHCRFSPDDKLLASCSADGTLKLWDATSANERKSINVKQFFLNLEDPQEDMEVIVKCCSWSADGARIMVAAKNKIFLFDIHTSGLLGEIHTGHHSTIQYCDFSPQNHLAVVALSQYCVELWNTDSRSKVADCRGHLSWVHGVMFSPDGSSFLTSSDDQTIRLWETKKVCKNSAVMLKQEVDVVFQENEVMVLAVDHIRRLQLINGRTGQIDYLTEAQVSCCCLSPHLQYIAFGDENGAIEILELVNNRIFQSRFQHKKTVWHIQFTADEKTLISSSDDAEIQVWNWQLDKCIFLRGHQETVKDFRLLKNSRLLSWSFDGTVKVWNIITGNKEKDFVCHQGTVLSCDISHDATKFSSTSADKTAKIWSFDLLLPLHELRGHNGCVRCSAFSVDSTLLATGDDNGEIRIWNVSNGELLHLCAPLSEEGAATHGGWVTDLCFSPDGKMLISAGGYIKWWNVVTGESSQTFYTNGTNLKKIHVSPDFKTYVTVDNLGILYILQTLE

[6] = Artemis endonuclease inhibitor potency, dose response, biochemical, fluorescence intensity (AID 720701); assay type: functional;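 note: Artemis endonuclease enzyme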

Row | Structure (SMILES) | IC50 [1] | IC50 [2] | AC50 [3] | AC50 [4] | IC50 [5] | IC50 [6]
1 | Oc1[nH]c2ccccc2c1N=Nc1ccc(F)cc1 | 3.07 µM (active) |  |  |  |  | 
2 | O=C1C(Nc2ccccc2)=C(N2CCCCC2)C(=O)c2ccccc21 |  | > 67 µM (not active) | 6.67 µM (active) | 68.5 µM (active) | 4.78 µM (active) | 18.9 µM (active)
